The text below walks through data of patent US20240181000A1, “LGG-DERIVED PEPTIDES AND METHODS OF USE THEREOF” (Ohio State Innovation Foundation, priority 2021, published 2024).

Where two headings read alike, the source gives them in different places. No end group written: not given here.

The subject of data set [1] is APEC O78. Format: cell-based, E. coli. The procedure: Anti-APEC activity determination: The anti-APEC activity of peptides was determined in LB broth following CLSI guidelines. Briefly, overnight grown APEC O78 was adjusted to 5×10^5 CFU/mL concentration in fresh LB media. One-hundred microliters of APEC suspension was aliquoted into the wells of the 96-well plate. Peptides were added to the wells at 6 mM and 12 mM concentrations and incubated at 37° C. in TECAN Sunrise™ absorbance microplate reader with kinetic absorbance measurement set at every 30 mins for 12 h. Sterile media and DMSO (solvent) were used as controls. The growth inhibitory activity of the peptides against APEC was calculated using the formula: (OD600 DMSO treated well−OD600 peptide treated well)/OD600 DMSO treated well×100%.
The minimum inhibitory concentration (MIC) was determined for selected peptides (P1, P2, P3, and P4) using similar assay as above. Peptides were added to the wells of the 96-well plate at 6 mM, 9 mM, 12 mM, 15 mM, and 18 mM concentrations. The peptide concentration at which there is no visible APEC growth (no OD increase) was determined as MIC. Two independent experiments were conducted.
Arginine and lysine substituted peptide analogues: The non-essential amino acid residues identified in each peptide were substituted with arginine/lysine to test whether these substitutions enhance the anti-APEC activity of peptides. The MICs of arginine and lysine substituted peptide analogues ([…] (SEQ ID NO:37), […] (SEQ ID NO:38), […] (SEQ ID NO:39), KDENK (SEQ ID NO:41), PDEKK (SEQ ID NO:42), KDEKK (SEQ ID NO:43), KHTAPK (SEQ ID NO:45), VKTAPK (SEQ ID NO:46), VHTKPK (SEQ ID NO:47), and KKTKPK (SEQ ID NO:48)) were determined as above and compared with original peptides.

The subject of data set [2] is multiple APEC serotypes. Format: cell-based, E. coli. Here is the method: Anti-APEC spectrum determination: Peptides (P1, P2, and P3) were tested against multiple APEC serotypes/strains to determine their spectrum of activity. Peptides were added at their MICs and the growth inhibitory activity of the peptides was determined as described above.
The test system of data set [3] is APEC. It counts as in vivo, chickens. The following applies: in vivo. The text has this: FIGS. 57A-57D show the APEC load of chickens (at 7 dpi [days post infection]) treated with either peptides P-1 or P-2.
Data set [4] concerns APEC. As to conditions: in vivo. The procedure:
FIGS. 58A-58B show the APEC load after treatment 8 days dpi with LGG and 50 mg/mL of peptides in drinking water.

Data set [5] relates to Salmonella Javiana. It counts as cell-based. Here is the method:
(§1) Peptide protection against varied Salmonella serovars: To further test the spectrum of the peptides anti-Salmonella capabilities, eight additional Salmonella serovars commonly implicated in foodborne illness (S. Anatum, S. Albany, S. Brenderup, S. Javiana, S. Heidelberg, S. Muenchen, S. Newport, S. Saintpaul) were analyzed. P1, P2, and P4 (selected based on dose response assay results) were added to the assay at their MICs to determine their effect on different serovars. Inhibition was determined using criteria from above.

The subject of data set [6] is Salmonella Brenderup. The data set is described as follows: MIC against serovars. Format: cell-based. Here is the method:
as §1

Data set [7] concerns Salmonella Saintpaul. The data set is described as follows: MIC against serovars. It counts as cell-based. Here is the method:
as §1

Data set [8] relates to APEC O78. As to the kind of experiment: Agar-well diffusion assay. It counts as cell-based, E. coli. The following applies: whole culture, 24 h. Here is the method: Agar-well diffusion assay: To determine the inhibitory activity of commensal and probiotic bacteria against APEC, agar-well diffusion assay was conducted as described previously. Briefly, LB agar plate was spread with 100 μL of APEC O78 (10^7 CFU/mL) and 100 μL of fully grown stationary phase whole cultures (adjusted to OD600: 1) of commensal and probiotic bacteria were aliquoted into the wells bored in the agar plate. The plate was incubated at 37° C., and zone of inhibition was measured at 12 h and 24 h post-incubation. The inhibitory activity of L. rhamnosus GG and B. lactis Bb12 was also tested with different culture volumes (200 μL, 150 μL and 50 μL) and against other APEC serotypes as described above. Assay was also conducted with cell-free supernatants (CF Ss) of L. rhamnosus GG and B. lactis Bb12 and supernatant-free L. rhamnosus GG and B. lactis Bb12 itself. CFSs were prepared by centrifugation of whole cultures at 10,000×g for 10 min at 4° C. followed by filtration through 0.22 μm filter. The supernatant-free cultures were washed once and resuspended in PBS to check the activity of L. rhamnosus GG and B. lactis Bb12 itself. Two independent experiments were conducted. […]
For orientation: A growth-free zone around the sample is the usual read-out of agar diffusion tests.

Usually MIC50 stands for an inhibitory concentration at the 50% level, which refers to growth in some studies and to a panel of isolates in others. Low readings indicate greater potency, high ones weaker potency. The MIC is the lowest concentration that inhibits growth of the organism. Read a low MIC as greater potency.

Consider NPSRQERR [Peptide P1], for which the “MIC50” value in data set [1] is reported as 14.7 mM. For the same substance, the “Growth inhibition against APEC serotypes” value in data set [2] is reported as 95.1-100%. The Bodyweight entry in data set [3] and in data set [4] was “no significant effect” each time. For the same substance, the MIC in data set [5], in data set [6] and in data set [7] was 18 mM in each case.

In the case of Bifidobacterium longum, in data set [8], the Zone of inhibition is reported as 0.0 ± 0.0 mm.
